Results: US6338962B1, “Use of a non-mammalian DNA virus to express an exogenous gene in a mammalian cell” (priority 1996, dated 2002)

Key:
HepG2 cells [1] = test: De novo expression test with inhibitors, β-galactosidase in extracts; format: cell-based, human
Description: Second, HepG2 cells were infected with the RSV-lacZ virus and then cultured in the presence of the protein synthesis inhibitor cycloheximide.
To determine whether endosome acidification was necessary for baculovirus-mediated gene transfer into mammalian cells, HepG2 cells were infected with RSV-lacZ AcMNPV in the presence of chloroquine, a lysomotropic agent. HepG2 cells were exposed to AcMNPV virus in media containing or lacking inhibitor for 90 minutes, then the virus-containing media were removed and replaced with fresh media containing or lacking inhibitors as listed.
At one day post-infection, the cells were harvested and extracts were assayed for β-galactosidase activity and protein content. Each value in the table represents the average of three independent assays, with the amount of β-galactosidase produced by the RSV-lacZ AcMNPV virus in the absence of inhibitors assigned a value of 100%. β-galactosidase activity was normalized for protein content of each extract.

Hep G2 = test: Comparison of promoter strengths, β-galactosidase ONPG assay; format: cell-based, human; details: for Promoter strength, β-galactosidase: moi 100, 24 hours, mock background subtracted
Source text: Baculovirus-mediated Gene Transfer is Enhanced by Butyrate: This example illustrates that butyrate enhances the ability of a baculovirus to express an exogenous gene in a mammalian cell. Five transfer plasmids containing different mammalian promoters were created, as diagrammed in FIG. 18. These vectors were constructed using pSV/BV, a modified version of the baculovirus transfer plasmid pBacPAK9 (Clontech), containing an altered polylinker and SV40 splice and polyadenylation signals. pSV/BV was constructed by restriction of pBacPAK9 with NotI, treatment with T4 DNA polymerase to create blunt ends, and self-ligation to remove the NotI site. A new NotI site was then added by ligation of the linker p[…] into the SmaI site. Finally, SV40 splice and polyadenylation sequences were added by digestion of a variant of pRSVglobin with BglII-BamHI, and insertion of the 850 bp fragment into the BamHI site of the modified BacPAK9, yielding pSV/BV. The human cytomegalovirus immediate early promoter, 758 bp HindIII-XbaI fragment, was excised from PCMV-EBNA (Invitrogen) at HindIII, BamHI and inserted into the HindIII, BamHI sites of pBluescript (SKII^+), yielding plasmid pCMV-SKII^+. The promoter was then excised from CMV-SK II^+ at the XhoI, BamHI sites and inserted into the XhoI, BglII sites of pSV/BV, yielding plasmid pCMV/BV. The 500 bp mouse phosphoglycerate kinase (PGK) promoter was prepared by cutting pKJ1-neo (Tybulewicz et al., 1991, Cell 65: 1153-1163) with EcoRI and made blunt with T4 DNA polymerase to remove the EcoRI site. The resulting pKJ1 plasmid lacking the EcoRI site was amplified by pfu polymerase chain reaction using the primers 5′ […]3′ (SEQ ID NO: 5) and 5′ […]3′ (SEQ ID NO: 6). The amplified PGK promoter was then digested with XhoI and BglII and inserted into the same sites of pSV/BV yielding PKJ1/BV. The 345 bp rat β-actin promoter was excised from pINA (6) at BglII, BamHI and inserted into the BglII site of pSV/BV yielding pβ-actin/BV. The 2.3 kb albumin enhancer and 700 bp albumin promoter were excised from pGEMAlbSVPA (Zaret et al., 1988, Proc. Natl. Acad. Sci. 85:9076-9080) at NaeI, NsiI and inserted into the SmaI, PstI sites of pSV/BV. The RSVlacZ transfer plasmid used (also referred to herein as the Z4 virus) is described above. A 3.0 kb Lac Z cassette was inserted into the NotI site of all of the plasmids constructed (See FIG. 18).
Recombinant viruses were generated by contransfection of the baculovirus transfer vectors with linear BP6 viral DNA (Clontech) into Sf21 cells. The recombinant viruses were purified through three rounds of plaque isolation and amplified on Sf21 cells. The amplified viruses were concentrated by ultracentrifugation as described above and titered by a 96-well method on Sf21 insect cells (O'Reilly et al., 1992, Baculovirus Expression Vectors: A Laboratory Manual, W.H. Freeman, New York, N.Y.).
The human hepatocellular carcinoma cell line HepG2 was infected with each recombinant virus at a multiplicity of infection of 100. Two million cells were infected in a final volume of 1 ml Eagle's Minimum Essential Medium in a 60 mm tissue culture dish. The infection was allowed to proceed for two hours, then 4 ml of complete medium was added to the cells. In a second series of HepG2 infections, the conditions of the first infections were repeated with the exception that after the infection had proceeded for 2 hours 25 μl of sodium butyrate (100 mM) was added to the cells with 1.5 ml complete media. […]

Rat Hepatocytes = test: as above; format: cell-based; details: Rat Hepatocytes −butyrate
HepG2 cells [2] = test: X-gal histochemical staining of infected cells; format: cell-based, human; details: moi 100
Description: […] Adherent cell lines were seeded one day prior to infection. Cells were exposed to virus in 2 ml of medium for 90 minutes, and then the virus-containing medium was removed and replaced with fresh medium. Mock-infected cells were treated with 2 ml medium lacking the viral inoculum.
For histochemical staining of β-galactosidase activity, cells were fixed in 2% (w/v) formaldehyde-0.2% (v/v) […] in PBS for 5 minutes. After several rinses with PBS, the cells were stained by the addition of 0.5 mg/ml of X-gal (BRL) in PBS for 2-4 hours at 37° C.

## CCN(CC)CCCC(C)Nc1ccnc2cc(Cl)ccc12 (stereo not drawn) [chloroquine]
HepG2 cells [1]; 25 μM continuously present during and after exposure to virus
  effect on de novo expression of β-galactosidase: completely prevented
HepG2 cells [1]; added at 90 minutes after exposure to the virus
  effect on β-galactosidase expression: only partial inhibition

## CCCC(=O)[O-].[Na+] [sodium butyrate, reference compound]
Hep G2; HepG2, added 2 hours after start of infection
  effect of addition after infection on β-galactosidase expression: detectable levels of β-galactosidase expression with all of the promoters tested

## Albumin
Rat Hepatocytes
  Promoter strength, β-galactosidase: 0.15 ± 0.08 Units/mg
Hep G2; Hep G2 +butyrate
  Promoter strength, β-galactosidase: 0.08 ± 0.04 Units/mg
Hep G2; Hep G2 −butyrate
  Promoter strength, β-galactosidase: 0.0 ± 0.0 Units/mg
Hep G2; Hep G2 −butyrate, listed as albumin
  Promoter strength, β-galactosidase: no activity above background levels
Hep G2; HepG2
  change of gene expression after treatment with butyrate: increased gene expression
HepG2 cells [2]
  X-gal staining of cells not treated with butyrate: positively stained cells were detected
